Results on 16 compounds are retold here after patent US20240190880A1 (THE REGENTS OF THE UNIVERSITY OF MICHIGAN, priority 2021, published 2024).

One test concerns the target T1, ER (Homo sapiens, UniProt P03372).
T1 construct: host or cells: T47D and MCF7 human breast cancer cells
T1 sequence (P03372 1-595): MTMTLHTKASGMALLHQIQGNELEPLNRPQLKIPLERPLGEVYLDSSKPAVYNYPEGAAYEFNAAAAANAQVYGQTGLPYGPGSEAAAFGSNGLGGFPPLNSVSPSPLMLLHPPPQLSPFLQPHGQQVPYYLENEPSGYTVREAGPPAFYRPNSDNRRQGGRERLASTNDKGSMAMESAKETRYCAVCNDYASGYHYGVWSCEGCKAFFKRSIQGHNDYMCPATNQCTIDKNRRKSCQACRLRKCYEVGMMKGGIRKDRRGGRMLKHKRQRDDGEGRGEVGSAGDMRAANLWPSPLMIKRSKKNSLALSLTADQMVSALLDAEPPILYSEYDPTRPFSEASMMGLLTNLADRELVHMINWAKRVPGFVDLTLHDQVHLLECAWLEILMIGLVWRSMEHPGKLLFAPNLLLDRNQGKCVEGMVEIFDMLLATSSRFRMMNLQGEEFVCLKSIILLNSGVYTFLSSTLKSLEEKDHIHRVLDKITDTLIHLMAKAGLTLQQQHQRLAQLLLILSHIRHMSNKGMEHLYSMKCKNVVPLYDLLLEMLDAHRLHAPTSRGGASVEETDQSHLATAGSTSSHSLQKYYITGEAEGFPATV
The test can be described thus: ER degradation activity, in-cell western blot analysis in T47D cells. It is filed as cell-based. The following applies: 16 hours, Table A does not say which cell line (T47D or MCF7), read-out: Potency (DC50). The procedure, abridged:
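Read-out is near-infrared fluorescence from an in-cell western, expressed as ER percentage relative to untreated and DMSO controls taken as 100%. T47D breast cancer cells received compound for 16 h in 0.5% DMSO.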
As a reminder, the DC50 is the concentration at which degradation of the target reaches its halfway point. With `O=C1CCC(N2C(=O)c3cc4c(cc3C2=O)CN(CC(=O)N2CCC[C@H](Oc3ccc([C@@H]5c6ccc(O)cc6CC[C@@H]5c5ccc(F)cc5)cc3)C2)C4)C(=O)N1` (mixture of isomers) [E 157, Rac-2-(2,6-dioxopiperidin-3-yl)-6-(2-((S)-3-(4-((1R,2S)-2-(4-fluorophenyl)-6-hydroxy-1,2,3,4-tetrahydronaphthalen-1-yl)phenoxy)piperidin-1-yl)-2-oxoethyl)-6,7-dihydropyrrolo[3,4-f]isoindole-1,3(2H,5H)-dione], the DC50 is over 100 nM.

As for `C[C@@H]1Cc2c([nH]c3ccccc23)[C@@H](c2c(F)cc(C3CCC(C(=O)N4CCC(N5Cc6cc7c(cc6C5)C(=O)N(C5CCC(=O)NC5=O)C7=O)CC4)CC3)cc2F)N1CC(F)F` (stereo partly drawn) [E246, 6-(1-(4-(4-((1R,3R)-2-(2,2-difluoroethyl)-3-methyl-2,3,4,9-tetrahydro-1H-pyrido[3,4-b]indol-1-yl)-3,5-difluorophenyl)cyclohexane-1-carbonyl)piperidin-4-yl)-2-(2,6-dioxopiperidin-3-yl)-6,7-dihydropyrrolo[3,4-f]isoindole-1,3(2H,5H)-dione], the DC50 is under 10 nM.

For `CN(c1ccc([C@H]2c3ccc(O)cc3CC[C@H]2c2ccccc2)cc1)C1CN([C@H]2CC[C@H](C(=O)N3Cc4cc5c(cc4C3)C(=O)N(C3CCC(=O)NC3=O)C5=O)CC2)C1` (stereo partly drawn) [E 395, 2-(2,6-dioxopiperidin-3-yl)-6-((1R,4s)-4-(3-((4-((1S,2R)-6-hydroxy-2-phenyl-1,2,3,4-tetrahydronaphthalen-1-yl)phenyl)(methyl)amino)azetidin-1-yl)cyclohexane-1-carbonyl)-6,7-dihydropyrrolo[3,4-f]isoindole-1,3(2H,5H)-dione], the DC50 was over 100 nM.

With `C[C@@H]1CC2(CCN(c3ccc([C@@H]4c5ccc(O)cc5CC[C@@H]4c4ccc(F)cc4)cc3)CC2)CN1C(=O)CN1Cc2cc3c(cc2C1)C(=O)N(C1CCC(=O)NC1=O)C3=O` (mixture of isomers) [E 145, Rac-2-(2,6-dioxopiperidin-3-yl)-6-(2-((R)-8-(4-((1R,2S)-2-(4-fluorophenyl)-6-hydroxy-1,2,3,4-tetrahydronaphthalen-1-yl)phenyl)-3-methyl-2,8-diazaspiro[4.5]decan-2-yl)-2-oxoethyl)-6,7-dihydropyrrolo[3,4-f]isoindole-1,3(2H,5H)-dione], the DC50 lay in the range of 10 to 100 nM.

With `O=C1CCC(N2C(=O)c3cc4c(cc3C2=O)CCN(CC(=O)N2CCC3(CC2)CCN(c2ccc([C@@H]5c6ccc(O)cc6CC[C@@H]5c5ccc(F)cc5)cc2)CC3)CC4)C(=O)N1` (stereo partly drawn) [E 183, 2-(2,6-dioxopiperidin-3-yl)-7-(2-(9-(4-((1R,2S)-2-(4-fluorophenyl)-6-hydroxy-1,2,3,4-tetrahydronaphthalen-1-yl)phenyl)-3,9-diazaspiro[5.5]undecan-3-yl)-2-oxoethyl)-6,7,8,9-tetrahydroazepino[4,5-f]isoindole-1,3(2H,5H)-dione], the DC50 is over 100 nM.

Take `O=C1CCC(N2Cc3cc4c(cc3C2=O)CN(C(=O)[C@H]2CC[C@@H](N3CC(Nc5ccc([C@@H]6c7ccc(O)cc7CC[C@@H]6c6ccccc6)cc5)C3)CC2)C4)C(=O)N1` (single isomer, unassigned) [E 361]: the DC50 is over 100 nM.

With `O=C1CCC(N2C(=O)c3cc4c(cc3C2=O)CN(CC2CCN(CC3CN(c5ccc([C@@H]6c7ccc(O)cc7CC[C@@H]6c6ccccc6)cc5)C3)CC2)C4)C(=O)N1` (stereo partly drawn) [E244, 2-(2,6-dioxopiperidin-3-yl)-6-((1-((1-(4-((1R,2S)-6-hydroxy-2-phenyl-1,2,3,4-tetrahydronaphthalen-1-yl)phenyl)azetidin-3-yl)methyl)piperidin-4-yl)methyl)-6,7-dihydropyrrolo[3,4-f]isoindole-1,3(2H,5H)-dione], the DC50 lay within 10 to 100 nM.

For `C[C@@H]1Cc2cc(O)ccc2[C@@H](c2c(F)cc(N3CCC4(CCN(CC(=O)N5Cc6cc7c(cc6C5)C(=O)N(C5CCC(=O)NC5=O)C7=O)C4)CC3)cc2F)N1CC(C)(F)F` (stereo partly drawn) [E 33, 6-(2-(8-(4-((1S,3R)-2-(2,2-difluoropropyl)-6-hydroxy-3-methyl-1,2,3,4-tetrahydroisoquinolin-1-yl)-3,5-difluorophenyl)-2,8-diazaspiro[4.5]decan-2-yl)acetyl)-2-(2,6-dioxopiperidin-3-yl)-6,7-dihydropyrrolo[3,4-f]isoindole-1,3(2H,5H)-dione], the DC50 was over 100 nM.

As to `C[C@@H]1Cc2c([nH]c3ccccc23)[C@@H](c2ccc(N3CCC4(CCN(CC(=O)N5Cc6cc7c(cc6C5)C(=O)N(C5CCC(=O)NC5=O)C7=O)CC4)CC3)cn2)N1CC(F)F` (stereo partly drawn) [E 292, 6-(2-(9-(6-((1S,3R)-2-(2,2-difluoroethyl)-3-methyl-2,3,4,9-tetrahydro-1H-pyrido[3,4-b]indol-1-yl)pyridin-3-yl)-3,9-diazaspiro[5.5]undecan-3-yl)acetyl)-2-(2,6-dioxopiperidin-3-yl)-6,7-dihydropyrrolo[3,4-f]isoindole-1,3(2H,5H)-dione], the DC50 was over 100 nM.

As for `C[C@@H]1CC2(CCN(c3ccc([C@@H]4c5ccc(O)cc5CC[C@@H]4c4ccc(F)cc4)cc3)CC2)CN1CC(=O)N1Cc2cc3c(cc2C1)C(=O)N(C1CCC(=O)NC1=O)C3=O` (mixture of isomers) [E 146, Rac-2-(2,6-dioxopiperidin-3-yl)-6-(2-((R)-8-(4-((1R,2S)-2-(4-fluorophenyl)-6-hydroxy-1,2,3,4-tetrahydronaphthalen-1-yl)phenyl)-3-methyl-2,8-diazaspiro[4.5]decan-2-yl)acetyl)-6,7-dihydropyrrolo[3,4-f]isoindole-1,3(2H,5H)-dione], the DC50 is over 100 nM.

Take `O=C1CCC(N2C(=O)c3cc4c(cc3C2=O)CN(C(=O)CN2CCC3(CC2)CCN(c2ccc([C@@H]5c6ccc(B(O)O)cc6CC[C@@H]5c5ccccc5)cc2)CC3)C4)C(=O)N1` (mixture of isomers) [E 181, Rac-((5R,6S)-5-(4-(9-(2-(6-(2,6-dioxopiperidin-3-yl)-5,7-dioxo-3,5,6,7-tetrahydropyrrolo[3,4-f]isoindol-2(1H)-yl)-2-oxoethyl)-3,9-diazaspiro[5.5]undecan-3-yl)phenyl)-6-phenyl-5,6,7,8-tetrahydronaphthalen-2-yl)boronic acid]: the DC50 was over 100 nM.

For `O=C1CCC(N2C(=O)c3cc4c(cc3C2=O)CN(C(=O)[C@H]2CC[C@H](N3CC(Nc5ccc([C@H]6c7ccc(O)cc7CC[C@H]6c6ccccc6)cc5)C3)CC2)C4)C(=O)N1` (stereo partly drawn) [E 390, 2-(2,6-dioxopiperidin-3-yl)-6-((1S,4r)-4-(3-((4-((1S,2R)-6-hydroxy-2-phenyl-1,2,3,4-tetrahydronaphthalen-1-yl)phenyl)amino)azetidin-1-yl)cyclohexane-1-carbonyl)-6,7-dihydropyrrolo[3,4-f]isoindole-1,3(2H,5H)-dione], the DC50 was in the range of 10 to 100 nM.

In the case of `C[C@@H]1Cc2cc(O)ccc2C(c2ccc(N3CCC(C(=O)N4CCC(N5Cc6cc7c(cc6C5)C(=O)N(C5CCC(=O)NC5=O)C7=O)CC4)CC3)cn2)N1CC(F)F` (stereo partly drawn) [E 322, 6-(1-(1-(6-((3R)-2-(2,2-difluoroethyl)-6-hydroxy-3-methyl-1,2,3,4-tetrahydroisoquinolin-1-yl)pyridin-3-yl)piperidine-4-carbonyl)piperidin-4-yl)-2-(2,6-dioxopiperidin-3-yl)-6,7-dihydropyrrolo[3,4-f]isoindole-1,3(2H,5H)-dione], the DC50 was over 100 nM.

The test is the same for the next values; noted with them: compounds 16 hours, Table A does not say whether T47D or MCF7, read-out: Potency (DC50).
For `C[C@@H]1Cc2c(ccc3[nH]ncc23)[C@@H](c2ccc(N3CCC4(CCN(C(=O)CN5Cc6cc7c(cc6C5)C(=O)N(C5CCC(=O)NC5=O)C7=O)CC4)CC3)cn2)N1CC(F)(F)F` (stereo partly drawn) [E 413, 2-(2,6-dioxopiperidin-3-yl)-6-(2-(9-(6-((6S,8R)-8-methyl-7-(2,2,2-trifluoroethyl)-6,7,8,9-tetrahydro-3H-pyrazolo[4,3-f]isoquinolin-6-yl)pyridin-3-yl)-3,9-diazaspiro[5.5]undecan-3-yl)-2-oxoethyl)-6,7-dihydropyrrolo[3,4-f]isoindole-1,3(2H,5H)-dione], the DC50 was under 10 nM.

Take `CN(c1ccc([C@@H]2c3ccc(O)cc3CC[C@@H]2c2ccccc2)cc1)C1CN(C[C@H]2CC[C@H](C(=O)N3Cc4cc5c(cc4C3)C(=O)N(C3CCC(=O)NC3=O)C5=O)CC2)C1` (stereo partly drawn) [E 398, 2-(2,6-dioxopiperidin-3-yl)-6-((1R,4r)-4-((3-((4-((1R,2S)-6-hydroxy-2-phenyl-1,2,3,4-tetrahydronaphthalen-1-yl)phenyl)(methyl)amino)azetidin-1-yl)methyl)cyclohexane-1-carbonyl)-6,7-dihydropyrrolo[3,4-f]isoindole-1,3(2H,5H)-dione]: the DC50 was over 100 nM.

Turning to `C[C@@H]1Cc2cc(O)ccc2[C@@H](c2c(F)cc(C3CCC4(CC3)CCN(C(=O)CN3Cc5cc6c(cc5C3)C(=O)N(C3CCC(=O)NC3=O)C6=O)CC4)cc2F)N1CC(F)F` (stereo partly drawn) [E 447, 6-(2-(9-(4-((1S,3R)-2-(2,2-difluoroethyl)-6-hydroxy-3-methyl-1,2,3,4-tetrahydroisoquinolin-1-yl)-3,5-difluorophenyl)-3-azaspiro[5.5]undecan-3-yl)-2-oxoethyl)-2-(2,6-dioxopiperidin-3-yl)-6,7-dihydropyrrolo[3,4-f]isoindole-1,3(2H,5H)-dione], the DC50 is over 100 nM.
